Entries after “also recorded” stand apart in the source; their conditions may differ. Counter-ions that a name gives are not always drawn.
Columns and labels:
[1] = test system: LPS-induced pulmonary neutrophilia in rats; assay: In Vivo Assay 1: LPS induced pulmonary neutrophilia in rats, intratracheally administered PDE4 inhibitors; set-up: species or system rat; details: for percentage mean inhibition of LPS-induced pulmonary neutrophilia / arithmetic mean percentage inhibition of LPS-induced pulmonary neutrophilia: rat, about 2 hours prior to LPS; for percentage mean inhibition of LPS-induced pulmonary neutrophilia: i.t. aqueous solution; for arithmetic mean percentage inhibition of LPS-induced pulmonary neutrophilia: i.t. dry powder blended in lactose; for duration of action: preliminary tests
From the text: This assay is an animal model of acute inflammation in the lung—specifically neutrophilia induced by lipopolysaccharide (LPS)—and allows the study of putative inhibition of such neutrophilia (anti-inflammatory effect) by an intratracheally (i.t.) administered PDE4 inhibitor (“drug”). The PDE4 inhibitors are suitably in dry powder, aqueous solution or aqueous suspension form. I.t. administration is one model of inhaled administration, allowing topical delivery to the lung.
Animals: Male CD (Sprague Dawley Derived) rats supplied by Charles River, United Kingdom are housed in groups of 5 rats per cage, acclimatised after delivery for at least 7 days with bedding/nesting material regularly changed, fed on SDS diet R1 pelleted food given ad lib, and supplied with daily-changed pasteurised animal grade drinking water.
Device for dry powder administration: For these studies, a Penn Century DP-4 dry powder intratracheal (i.t.) delivery device (insufflator) is used for administration of a dry powder blend of vehicle (inhalation grade lactose) and the PDE4 inhibitor compound or salt of the invention (“drug”). Each device is numbered and the sample loading chamber is unscrewed from the main device and weighed. The i.t. delivery needle is also weighed. The drug+lactose blend or inhalation grade lactose (vehicle control) is then added to the sample chamber and this is then re-weighed. The sample chamber is fitted back on to the main device to prevent any drug being lost. This procedure is repeated for all of the Penn century devices to be used in the study (one separate device for each animal). After dosing to the animals, the sample chambers and needles are re-weighed in order to determine the amount of sample that was expelled from the device.
Device for aqueous solution administration: A blunt dosing needle, whose forward end is slightly angled to the needle axis, is used, with a flexible plastic portex canula inserted into the needle. The portex cannula is inserted into the lumen of the blunt stainless steel dosing needle and this is carefully inserted into the back of the animal's throat and into the trachea via the larynx. A known volume (200 microliters) of the vehicle (0.2% Tween 80™ in saline) or of the solution (or suspension) drug composition is administered into the trachea using a plastic syringe that is attached to the portex cannula and dosing needle. A new internal cannula is used for each different drug group. After dosing, the needle is removed from the trachea and the animals are removed from the table and continually observed until they recover from the effects of anaesthesia. The animals are then returned to the holding cages and given free access to food and water, and are observed and any unusual behavioural changes noted. (Aqueous suspensions can be handled generally similarly.)
Drugs and Materials: Lipopolysaccharide (LPS) (Serotype:0127:B8, e.g. from Sigma, UK; e.g. L3129 prepared by phenol extraction) is dissolved in phosphate-buffered saline (PBS).
For dry powder, aqueous solution or aqueous suspension administration, PDE4 inhibitors are preferably used in size-reduced (e.g. micronised) form, for example according to the Micronisation Example(s) disclosed herein.
For dry powder administration of the drug, the PDE4 inhibitor compound or salt of the invention (drug) is administered as a dry powder blended with inhalation-grade (respiratory-grade) lactose, i.e. as a dry powder composition. The target quantity of dry powder composition administered i.t. to each animal is 2 mg. This remains constant throughout the studies. To achieve different doses, blends of the drug dry powder and lactose, containing different concentrations of the PDE4 inhibitor compound or salt of the invention (drug), are prepared. […]

[2] = cited from earlier work
[3] = cited from earlier work; remark: listed apart in the source
[4] = orally 500 ug once daily for 9 days; daily intranasal allergen provocation (pollen extracts); cited from earlier work
[5] = test system: LPS-induced nasal neutrophilia in rats; assay: In vivo assay 2: LPS induced nasal neutrophilia in rats, intranasally administered PDE4 inhibitors; details: rat, i.n. aqueous solution, about 30 minutes prior to LPS
From the text: This assay is an animal model of acute inflammation in the nose—specifically neutrophilia induced by lipopolysaccharide (LPS)—and allows the study of putative inhibition of such neutrophilia (anti-inflammatory effect) by an intranasally (i.n.) administered PDE4 inhibitor (“drug”). The PDE4 inhibitor is preferably in the form of an aqueous suspension or aqueous solution. Bolus, i.n. administration allows topical delivery to the nose.
Animals: Male CD rats (Sprague Dawley derived), weighing between 300-350 g are supplied by Charles River, UK and transported to the test site. On arrival at the test site, the animals are housed in groups of 4 or 5 per cage and complete a minimum acclimatisation period of 7 days. The animals are housed in solid bottomed cages using grade 8 sawdust. The bedding and nesting materials are changed 3 times per week. Diet comprises SDS diet R1 pelleted food given ad lib. Pasteurised animal grade drinking water is supplied and changed daily.
Lipopolysaccharide (Serotype: 0127:B8, e.g. available from Sigma, UK; e.g. L3129 prepared by phenol extraction) is used for all studies and is dissolved in phosphate-buffered saline (PBS).
Tween 80™ (e.g. available from Sigma e.g. 023K 01575). A mixture of 0.2% Tween 80™ in phosphate buffered saline (PBS) is prepared as vehicle for solution compositions. The Sigma catalogue 2004-2005 and The Handbook of Pharmaceutical Excipients (HPE) 4th edition 2003 pp. 479-483 define Tween 80™ as a brand of polysorbate 80 (according to HPE, polysorbate 80 is also named polyoxyethylene 20 sorbitan monooleate, i.e. having been copolymerised with about 20 moles of ethylene oxide for each mole of sorbitol and/or sorbitol anhydrides used).
The PDE4 inhibitor compound or salt of the invention (“drug”) is preferably used in size-reduced (e.g. micronised) form, for example according to the Micronisation Example(s) disclosed herein.
A solution of compound (0.7 mg/ml) is generally prepared by adding 0.2% Tween 80™ in phosphate buffered saline (PBS) to a pre-weighed micronised sample of the drug. The solution composition is sonicated, e.g. for approximately 2 min, and is observed to be a solution (if it is a solution) by visual assessment. A fixed volume of 50 microliters (25 microliters into each nostril) of either the drug-containing solution composition or a saline/Tween 80™ vehicle is administered to all animals. Each animal weighs, on average, 350 g. To achieve a dose of 100 μg/kg (100 ug/kg), each animal receives a total of 35 μg (35 ug) of the drug. The dose volume is 50 microliters (25 microliters to each nostril), and therefore a concentration of 35 μg (ug) per 50 microliters (0.7 mg/ml) is prepared. To achieve lower dose concentrations, serial dilutions are prepared in saline/Tween 80™. […]

## CCc1nc2c(cnn2CC)c(NC2CCOCC2)c1CNC(=O)c1ccc(NC(=O)CCCCCCCN(C)CCO)cc1 [Example 1B, N-{[1,6-diethyl-4-(tetrahydro-2H-pyran-4-ylamino)-1H-pyrazolo[3,4-b]pyridin-5-yl]methyl}-4-({8-[(2-hydroxyethyl)(methyl)amino]octanoyl}amino)benzamide]
[1]; about 10 micrograms/kg
  percentage mean inhibition of LPS-induced pulmonary neutrophilia: about 29%
[1]; about 30 micrograms/kg
  percentage mean inhibition of LPS-induced pulmonary neutrophilia: about 75%
[1]; about 100 micrograms/kg
  percentage mean inhibition of LPS-induced pulmonary neutrophilia: about 59%

## COc1ccc(C2CNC(=O)NC2)cc1O[C@H]1C[C@@H]2CC[C@H]1C2 [CP80,633]
[2]; 0.5% ointment, twice daily topical application
  inflammatory parameters in atopic dermatitis patients: reductions of inflammatory parameters

## Nc1nc2c([nH]1)c(=O)n(CC1CC1)c(=O)n2CC1CC1 [cipamfylline]
[2]; 0.15% cream versus vehicle and hydrocortisone 17-butyrate (0.1%) cream
  effectiveness in the treatment of atopic dermatitis patients: significantly more effective than vehicle, but significantly less effective than hydrocortisone 17-butyrate (0.1%) cream

## CCc1nc2c(cnn2CC)c(NC2CCOCC2)c1CNC(=O)c1ccc(NC(=O)CCCCCCCN(C)CCO)cc1 [Example 1A1, N-{[1,6-Diethyl-4-(tetrahydro-2H-pyran-4-ylamino)-1H-pyrazolo[3,4-b]pyridin-5-yl]methyl}-4-({8-[(2-hydroxyethyl)(methyl)amino]octanoyl}amino)benzamide dihydrochloride]
[1]; about 10 micrograms/kg, dihydrochloride
  percentage mean inhibition of LPS-induced pulmonary neutrophilia: about 33%
[1]; about 30 micrograms/kg, dihydrochloride
  percentage mean inhibition of LPS-induced pulmonary neutrophilia: about 56%
[1]; about 100 micrograms/kg, dihydrochloride
  percentage mean inhibition of LPS-induced pulmonary neutrophilia: about 76%
[1]; about 300 micrograms/kg
  percentage mean inhibition of LPS-induced pulmonary neutrophilia: about 74%

## O=C(Nc1c(Cl)cncc1Cl)c1ccc(OC(F)F)c(OCC2CC2)c1 [roflumilast]
[3]; human, in vivo
  FEV1 in COPD patients: appears to show small improvements in FEV1
[4]
  rhinal airflow during the treatment period (compared to placebo): effective in improving rhinal airflow

## CCc1nc2c(cnn2CC)c(NC2CCOCC2)c1CNC(=O)c1ccc(NC(=O)CCCCCCCN(C)CCO)cc1 [Example 1A2, N-{[1,6-diethyl-4-(tetrahydro-2H-pyran-4-ylamino)-1H-pyrazolo[3,4-b]pyridin-5-yl]methyl}-4-({8-[(2-hydroxyethyl)(methyl)amino]octanoyl}amino)benzamide monohydrochloride]
[5]; about 1 micrograms/kg
  percentage inhibition (arithmetic mean) of LPS-induced nasal neutrophilia: essentially no inhibition
[5]; about 3 micrograms/kg
  percentage inhibition (arithmetic mean) of LPS-induced nasal neutrophilia: small and non-statistically-significant inhibition
[5]; about 10 micrograms/kg
  percentage inhibition (arithmetic mean) of LPS-induced nasal neutrophilia: about 62%
[5]; about 100 micrograms/kg
  percentage inhibition (arithmetic mean) of LPS-induced nasal neutrophilia: about 79%
[1]; about 10 micrograms/kg
  arithmetic mean percentage inhibition of LPS-induced pulmonary neutrophilia: about 29%
[1]; about 30 micrograms/kg
  arithmetic mean percentage inhibition of LPS-induced pulmonary neutrophilia: about 44%
[1]; about 100 micrograms/kg
  arithmetic mean percentage inhibition of LPS-induced pulmonary neutrophilia: about 39%
[1]; about 300 micrograms/kg
  arithmetic mean percentage inhibition of LPS-induced pulmonary neutrophilia: about 55%

## COc1ccc([C@]2(C#N)CC[C@@H](C(=O)O)CC2)cc1OC1CCCC1 [cilomilast]
[3]; 15 mg orally twice daily
  forced expiratory volume in 1s (FEV1) in COPD patients: appears to improve forced expiratory volume in 1s (FEV1)
[3]; human, in vivo
  antiinflammatory effects in COPD patients: appears to have anti-inflammatory effects; also recorded: appears to have antiinflammatory effects

## CCc1nc2c(cnn2CC)c(NC2CCOCC2)c1CNC(=O)c1ccc(NC(=O)CCCCCCCN(C)CCO)cc1 [N-{[1,6-diethyl-4-(tetrahydro-2H-pyran-4-ylamino)-1H-pyrazolo[3,4-b]pyridin-5-yl]methyl}-4-({8-[(2-hydroxyethyl)(methyl)amino]octanoyl}amino)benzamide]
[1]; after i.t. administration to the rat as a dry powder
  duration of action: 4 h
[1]; after i.t. administration to the rat as an aqueous solution
  duration of action: ≥ 2 h
